SMILES strings stand for the structures.

The target of data set [1] is T1, Solute carrier family 2, facilitated glucose transporter member 3 (Homo sapiens, UniProt P11169).
T1 sequence (P11169 whole entry): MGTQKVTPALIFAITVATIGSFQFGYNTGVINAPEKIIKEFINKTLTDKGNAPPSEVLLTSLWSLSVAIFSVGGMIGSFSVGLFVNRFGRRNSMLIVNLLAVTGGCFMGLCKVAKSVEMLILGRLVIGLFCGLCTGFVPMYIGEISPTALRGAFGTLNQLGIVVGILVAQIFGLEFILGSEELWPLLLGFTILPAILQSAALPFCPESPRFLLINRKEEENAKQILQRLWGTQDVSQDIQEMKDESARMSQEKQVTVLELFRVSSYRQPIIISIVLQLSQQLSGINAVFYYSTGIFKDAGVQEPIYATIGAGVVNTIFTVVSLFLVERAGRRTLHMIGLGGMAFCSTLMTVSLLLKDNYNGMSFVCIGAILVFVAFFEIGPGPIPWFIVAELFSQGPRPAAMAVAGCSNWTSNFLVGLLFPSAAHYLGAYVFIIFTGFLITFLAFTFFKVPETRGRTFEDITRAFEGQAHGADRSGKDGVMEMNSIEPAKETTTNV
The data set is described as follows: Inhibition of human GLUT3 expressed in human GLUT1-/- DLD-1 cells assessed as reduction in glucose uptake by measuring decrease in ATP production incubated for 15 mins in presence of oxidative phosphorylation inhibitor rotenone by CellTiter-Glo Luminescent Cell Viability Assay. In kind it is cell-based.

The target in data set [2] is T2, Solute carrier family 2, facilitated glucose transporter member 4 (Homo sapiens, UniProt P14672).
T2 sequence (P14672 whole entry): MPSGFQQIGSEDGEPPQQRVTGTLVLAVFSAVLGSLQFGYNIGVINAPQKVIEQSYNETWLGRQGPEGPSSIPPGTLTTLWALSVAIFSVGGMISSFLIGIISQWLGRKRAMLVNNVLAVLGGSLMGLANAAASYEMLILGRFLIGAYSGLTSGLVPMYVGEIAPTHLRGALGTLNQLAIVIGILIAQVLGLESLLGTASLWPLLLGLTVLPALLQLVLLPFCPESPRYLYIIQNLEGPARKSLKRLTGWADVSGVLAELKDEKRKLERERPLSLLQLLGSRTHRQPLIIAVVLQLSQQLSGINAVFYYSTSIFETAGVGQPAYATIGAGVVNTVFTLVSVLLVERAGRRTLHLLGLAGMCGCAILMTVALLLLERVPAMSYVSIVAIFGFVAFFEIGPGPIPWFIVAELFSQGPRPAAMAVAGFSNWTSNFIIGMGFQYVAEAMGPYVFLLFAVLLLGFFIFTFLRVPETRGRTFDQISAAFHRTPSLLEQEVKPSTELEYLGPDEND
The data set can be described thus: Inhibition of human GLUT4 expressed in CHO cells assessed as reduction in glucose uptake by measuring decrease in ATP production preincubated for 20 mins followed by glucose addition and measured after 15 mins in presence of oxidative phosphorylation inhibitor rotenone by CellTiter-Glo Luminescent Cell Viability Assay. In kind it is cell-based. In general terms: ATP-based viability assays read luminescence as a measure of living cells.

The target in data set [3] is T3, Solute carrier family 2, facilitated glucose transporter member 1 (Homo sapiens, UniProt P11166).
T3 sequence (P11166 whole entry): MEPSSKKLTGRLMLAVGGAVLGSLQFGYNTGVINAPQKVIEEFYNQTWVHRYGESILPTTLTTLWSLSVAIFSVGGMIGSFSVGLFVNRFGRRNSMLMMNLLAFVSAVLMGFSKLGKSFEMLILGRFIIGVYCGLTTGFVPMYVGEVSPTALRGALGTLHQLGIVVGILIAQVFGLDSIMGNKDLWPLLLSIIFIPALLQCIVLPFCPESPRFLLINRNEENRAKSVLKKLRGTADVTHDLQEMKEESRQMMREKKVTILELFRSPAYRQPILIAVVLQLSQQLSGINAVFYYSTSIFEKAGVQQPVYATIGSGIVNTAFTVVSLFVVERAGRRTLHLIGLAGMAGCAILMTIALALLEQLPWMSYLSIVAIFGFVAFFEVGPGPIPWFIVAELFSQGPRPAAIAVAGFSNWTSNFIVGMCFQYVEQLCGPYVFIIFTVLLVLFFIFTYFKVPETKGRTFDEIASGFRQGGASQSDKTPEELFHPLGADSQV
The data set can be described thus: Inhibition of human GLUT1 expressed in human DLD-1 cells assessed as reduction in glucose uptake by measuring decrease in ATP production incubated for 15 mins in presence of oxidative phosphorylation inhibitor rotenone by CellTiter-Glo Luminescent Cell Viability Assay. In kind it is cell-based.

Data set [4] is described as follows: Clearance in mouse liver microsomes. In kind it is ADME, Microsome. On the technique in general: Liver microsomes are vesicles of endoplasmic reticulum, rich in cytochrome P450 enzymes.
Data set [5] in a line: Clearance in rat hepatocytes. It counts as ADME, cell-based, Hepatocyte.
The nature of data set [6]: Stability in rat hepatocytes assessed as maximum bioavailability. In kind it is ADME, Hepatocyte. The settings on record: read-out: Fmax.
Data set [7] can be described thus: Clearance in human liver microsomes. It counts as ADME, Microsome.
A short description of data set [8]: Stability in human liver microsomes assessed as maximum bioavailability. It counts as ADME, Microsome. The conditions noted are these: read-out: Fmax.
A short description of data set [9]: Stability in mouse liver microsomes assessed as maximum bioavailability. In kind it is ADME, Microsome. The conditions noted are these: read-out: Fmax.

For `COc1ccc2nc(C(N)=O)cc(C(=O)Nc3c(C(F)(F)F)nn(Cc4ccc(C#N)cc4)c3C)c2c1`, the 50% inhibitory concentration (IC50) in data set [1] was found to be 110 nM; in [2], 13 nM.

`Cc1c(NC(=O)c2cc(C(=O)N3CC(O)C3)nc3cc(F)ccc23)c(C(F)(F)F)nn1Cc1ccc(C#N)cc1`: the IC50 in [3] came to 340 nM.

`Cc1nn(Cc2ccc(C#N)cn2)c(C)c1NC(=O)c1cc(C(F)(F)F)nc2ccc(Br)cc12`: in data set [3], the IC50 is 2 nM.

On to `Cc1c(NC(=O)c2cc(C(N)=O)nc3cc(F)ccc23)c(C(F)(F)F)nn1Cc1ccc(OC(F)(F)F)cc1`, for which the half-maximal inhibitory concentration (IC50) in [3] amounted to 5 nM; in [2], 370 nM.

Turning to `Cc1nn(Cc2ccc(C#N)cc2)c(C)c1NC(=O)c1cc(C(F)(F)F)nc2ccc(Br)cc12`, the CLhep predicted in data set [4] was 56.7 mL/min/kg.

For the compound `Cc1c(NC(=O)c2ccnc(C(N)=O)c2)c(C(F)(F)F)nn1Cc1ccc(C#N)cc1`, the concentration for half-maximal inhibition (IC50) in data set [3] is 200 nM.

On to `Cc1c(NC(=O)c2cc(-c3cccnc3)nc3ccccc23)c(C(F)(F)F)nn1Cc1ccc(C#N)cc1`, for which, in data set [3], the half-inhibitory concentration (IC50) was determined as 74 nM.

As for `Cc1c(NC(=O)c2cc(C(N)=O)nc3cccc(F)c23)c(C(F)(F)F)nn1Cc1ccc(C#N)cc1`, the results for the IC50 in [3], in [1] and in data set [2] were 3 nM, 230 nM and 94 nM, respectively.

As for `Cc1c(NC(=O)c2cc(C(N)=O)nc3cc(F)ccc23)c(C(F)(F)F)nn1Cc1cccc(C#N)c1`, the IC50 in data set [2] worked out at 950 nM.

On to `Cc1c(NC(=O)c2cc(C(N)=O)nc3scnc23)c(C(F)(F)F)nn1Cc1ccc(C#N)cc1`, for which the half-maximal inhibitory concentration (IC50) in data set [3] turned out to be 35 nM; in data set [2] it was 280 nM.

On to `Cc1nn(-c2ccc(F)cc2)c(C)c1NC(=O)c1cc(C(F)(F)F)nc2ccc(Br)cc12`, for which the IC50 in data set [3] amounted to 470 nM.

As for `Cc1c(NC(=O)c2cc(C(N)=O)nc3cc(F)ccc23)c(C(F)(F)F)nn1Cc1ccccc1C#N`, the figures for the IC50 in data set [3] and in [2] were 3 nM and 88 nM, respectively.

Consider `Cc1c(NC(=O)c2cc(C(N)=O)nc3cc(F)ccc23)c(C(F)(F)F)nn1Cc1ncc(C#N)cn1`, for which, in [3], the IC50 was 26 nM. Moreover, the CLhep predicted in [5] was 14.8 mL/min/kg; in data set [7], 3.67 mL/min/kg. For the same compound, the Fh stood at 79% in [6] and 83% in data set [8].

As to `Cc1nn(CCc2ccc(F)cc2)c(C)c1NC(=O)c1cc(C(F)(F)F)nc2ccc(Br)cc12`, in [2], the IC50 was determined as 340 nM.

For the compound `Cc1nn(Cc2ccc(F)cc2)c(C)c1N`, the IC50 in [3] was determined as 960 nM.

Turning to `Cc1c(NC(=O)c2cc(C(N)=O)nc3cc(F)c(F)cc23)c(C(F)(F)F)nn1Cc1ccc(C#N)cc1`, the half-maximal inhibitory concentration (IC50) in data set [3] is 2 nM; in data set [2], 180 nM.

On to `Cc1nn(Cc2ccc(F)cc2)c(C)c1NC(=O)c1cc(C(F)(F)F)nc2ccc(Br)cc12`, for which the CLhep predicted in data set [5] was 48.3 mL/min/kg; in [4], 75 mL/min/kg.

With `Cc1nn(Cc2ccc(C#N)cc2)c(C)c1NC(=O)c1cc(C(N)=O)nc2cc(F)ccc12`, the CLhep predicted is 16.7 mL/min/kg in data set [5], 7.5 mL/min/kg in data set [7] and 11.2 mL/min/kg in data set [4].

As to `Cc1cccc2nc(C(N)=O)cc(C(=O)Nc3c(C(F)(F)F)nn(Cc4ccc(C#N)cc4)c3C)c12`, the IC50 was 18 nM in [3], 86 nM in [1] and 17 nM in [2].

Consider `Cc1cccc(Cn2nc(C(F)(F)F)c(NC(=O)c3cc(C(N)=O)nc4cc(F)ccc34)c2C)c1`, for which the results for the 50% inhibitory concentration (IC50) in data set [3] and in [2] were 11 nM and 610 nM, respectively.

Regarding `Cc1c(NC(=O)c2cc(C(N)=O)nc3cc(F)ccc23)c(C(F)(F)F)nn1Cc1ccc(C(F)(F)F)cc1`, the half-maximal inhibitory concentration (IC50) in data set [3] amounted to 9 nM; in [2], 910 nM.

Consider `Cc1c(NC(=O)c2cc(-c3ncnn3C)nc3ccccc23)c(C(F)(F)F)nn1Cc1ccc(C#N)cc1`, for which the CLhep predicted was 31.7 mL/min/kg in data set [5] and 35 mL/min/kg in data set [4].

With `Cc1c(NC(=O)c2cc(C(N)=O)nc3cnccc23)c(C(F)(F)F)nn1Cc1ccc(C#N)cc1`, the half-maximal inhibitory concentration (IC50) in data set [3] came out at 10 nM; in data set [2], 61 nM.

As for `Cc1ccc2nc(C(N)=O)cc(C(=O)Nc3c(C(F)(F)F)nn(Cc4ccc(C#N)cc4)c3C)c2c1`, the IC50 in data set [2] came to 120 nM. Moreover, the CLhep predicted in [5] was 33.3 mL/min/kg; in data set [4], 38.3 mL/min/kg. Also, the Fh in [6] stood at 53%; in [9] it was 57%.

Regarding `Cc1nc(C)c(-c2cc(C(=O)Nc3c(C(F)(F)F)nn(Cc4ccc(C#N)cc4)c3C)c3ccccc3n2)s1`, the values for the half-maximal inhibitory concentration (IC50) in [3] and in [2] were 760 nM and 910 nM, respectively.

As for `CCc1ccc(Cn2nc(C(F)(F)F)c(NC(=O)c3cc(C(N)=O)nc4cc(F)ccc34)c2C)cc1`, the CLhep predicted is 48.3 mL/min/kg in data set [5] and 16.5 mL/min/kg in [7].

Take `Cc1c(NC(=O)c2cc(C(N)=O)nc3cc(F)ccc23)c(C(C)C)nn1Cc1ccc(C#N)cc1`: the IC50 in data set [3] was 7 nM. In addition, the CLhep predicted in data set [7] is 14.5 mL/min/kg. Besides, in data set [8], the Fh came to 34%.

`Cc1c(NC(=O)c2cc(-c3ccc(F)cc3)nc3ccccc23)c(C(F)(F)F)nn1Cc1ccc(C#N)cc1`: in [3], the half-inhibitory concentration (IC50) is 920 nM.

Consider `Cc1ccc2nc(C)cc(C(=O)Nc3c(C)nn(Cc4ccc(F)cc4)c3C)c2c1`, for which the CLhep predicted in data set [5] is 61.7 mL/min/kg; in data set [7], 20 mL/min/kg. Also, the Fh in data set [8] turned out to be 11%; in data set [9] it was 25%.

In the case of `Cc1ccccc1Cn1nc(C(F)(F)F)c(NC(=O)c2cc(C(N)=O)nc3cc(F)ccc23)c1C`, in data set [3], the IC50 amounted to 7 nM.

On to `Cc1c(NC(=O)c2cc(C(N)=O)nc3cc(F)ccc23)c(C(F)(F)F)nn1Cc1cnc(C#N)cn1`, for which the figures for the IC50 in data set [3] and in data set [2] were 5 nM and 16 nM, respectively. Besides, the figures for the CLhep predicted in data set [5] and in data set [7] were 20 mL/min/kg and 8.83 mL/min/kg, respectively. For the same compound, the Fh in [6] was 72%; in data set [8] it was 60%.

Regarding `Cc1cc(C)c2nc(-c3ccco3)cc(C(=O)Nc3c(C)nn(Cc4ccc(F)cc4)c3C)c2c1`, the CLhep predicted in data set [5] is 63.3 mL/min/kg.

Consider `Cc1c(NC(=O)c2cc(C(=O)NCCN3CCOCC3)nc3cc(F)ccc23)c(C(F)(F)F)nn1Cc1ccc(C#N)cc1`, for which the IC50 in [3] turned out to be 340 nM.

As for `Cc1c(NC(=O)c2cc(C(N)=O)nc3ncccc23)c(C(F)(F)F)nn1Cc1ccc(C#N)cc1`, the IC50 in data set [3] came to 45 nM; in data set [1], 300 nM; in data set [2] it was 1000 nM.

Consider `Cc1nn(Cc2ccc(C#N)cc2F)c(C)c1NC(=O)c1cc(C(F)(F)F)nc2ccc(Br)cc12`, for which the IC50 in [3] came out at 8 nM; in data set [2] it was 870 nM.

Turning to `Cc1c(NC(=O)c2cc(C(N)=O)nc3ccc(F)cc23)c(C(F)(F)F)nn1Cc1ccc(C#N)cc1`, the values for the IC50 in data set [3], in data set [1] and in data set [2] were 5 nM, 290 nM and 44 nM, respectively.

Consider `Cc1c(NC(=O)c2cc(C(N)=O)nc3cc(F)cc(F)c23)c(C(F)(F)F)nn1Cc1ccc(C#N)cc1`, for which the IC50 in data set [3] turned out to be 1 nM; in data set [1], 470 nM; in data set [2], 16 nM.

Broadly, the IC50 is the midpoint of a concentration-inhibition curve.

The values are drawn from ChEMBL document CHEMBL5653626 (ChemMedChem, 2016).
